We go through two compounds from ChEMBL document CHEMBL3632615, “N(6)-(2-Hydroxyethyl)adenosine in the Medicinal Mushroom Cordyceps cicadae Attenuates Lipopolysaccharide-Stimulated Pro-inflammatory Responses by Suppressing TLR4-Mediated NF-κB Signaling Pathways” (J Nat Prod, 2015).

What all share (assay type): cell-based
Experiment [1] addresses T1, Toll-like receptor 4 (Mus musculus) (UniProt Q9QUK6).
T1 sequence (whole entry): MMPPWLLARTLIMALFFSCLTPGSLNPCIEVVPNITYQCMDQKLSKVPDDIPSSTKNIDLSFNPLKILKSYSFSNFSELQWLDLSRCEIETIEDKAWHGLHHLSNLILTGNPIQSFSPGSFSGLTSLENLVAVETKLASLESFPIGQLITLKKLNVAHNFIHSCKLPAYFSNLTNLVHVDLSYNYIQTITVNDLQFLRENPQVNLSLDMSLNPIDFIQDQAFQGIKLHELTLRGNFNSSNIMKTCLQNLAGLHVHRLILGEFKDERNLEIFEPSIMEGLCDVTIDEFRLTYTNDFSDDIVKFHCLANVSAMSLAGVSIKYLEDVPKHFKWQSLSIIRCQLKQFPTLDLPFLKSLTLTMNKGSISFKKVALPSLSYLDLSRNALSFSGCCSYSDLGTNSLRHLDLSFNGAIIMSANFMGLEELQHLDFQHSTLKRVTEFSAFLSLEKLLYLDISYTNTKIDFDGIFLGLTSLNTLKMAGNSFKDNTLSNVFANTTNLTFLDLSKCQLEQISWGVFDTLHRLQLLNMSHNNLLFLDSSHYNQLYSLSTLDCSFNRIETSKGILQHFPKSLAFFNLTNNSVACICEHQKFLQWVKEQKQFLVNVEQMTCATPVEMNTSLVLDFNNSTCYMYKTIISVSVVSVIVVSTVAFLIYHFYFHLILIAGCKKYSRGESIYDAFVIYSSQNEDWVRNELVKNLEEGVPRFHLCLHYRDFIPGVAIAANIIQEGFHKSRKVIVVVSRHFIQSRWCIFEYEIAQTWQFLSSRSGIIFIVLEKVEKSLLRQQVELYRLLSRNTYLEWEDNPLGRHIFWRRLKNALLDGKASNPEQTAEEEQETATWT
The experiment in a line: Inhibition of TLR4-mediated NF-kappaB signaling pathway in BALB/c mouse RAW264.7 cells assessed as suppression of LPS-stimulated TNF-alpha production at 2.5 to 10 ug/ml preincubated for 1 hr followed by LPS challenge measured after 6 hrs by immunoblot analysis. Background: In western blotting, separated proteins are transferred to a membrane and probed.

The target in experiment [2] is T1, Toll-like receptor 4 (Mus musculus). Briefly: Inhibition of TLR4-mediated NF-kappaB signaling pathway in BALB/c mouse RAW264.7 cells assessed as suppression of LPS-stimulated TNF-alpha production at 0.5 to 5 ug/ml preincubated for 1 hr followed by LPS challenge measured after 6 hrs by immunoblot analysis in presence of cordycepin.
For experiment [3] the target is unchanged. Briefly: Inhibition of TLR4-mediated NF-kappaB signaling pathway in BALB/c mouse RAW264.7 cells assessed as suppression of LPS-stimulated TNF-alpha production at 0.5 to 5 ug/ml preincubated for 1 hr followed by LPS challenge measured after 6 hrs by immunoblot analysis in presence of HEA.
For experiment [4] the target is unchanged. Briefly: Inhibition of TLR4-mediated NF-kappaB signaling pathway in BALB/c mouse RAW264.7 cells assessed as suppression of LPS-stimulated PGE2 production at 2.5 to 10 ug/ml preincubated for 1 hr followed by LPS challenge measured after 6 hrs by immunoblot analysis.
For experiment [5] the target is unchanged. The experiment in a line: Inhibition of TLR4-mediated NF-kappaB signaling pathway in BALB/c mouse RAW264.7 cells assessed as suppression of LPS-stimulated PGE2 production at 0.5 to 5 ug/ml preincubated for 1 hr followed by LPS challenge measured after 6 hrs by immunoblot analysis in presence of cordycepin.
For experiment [6] the target is unchanged. The experiment in a line: Inhibition of TLR4-mediated NF-kappaB signaling pathway in BALB/c mouse RAW264.7 cells assessed as suppression of LPS-stimulated PGE2 production at 0.5 to 5 ug/ml preincubated for 1 hr followed by LPS challenge measured after 6 hrs by immunoblot analysis in presence of HEA.
The target is the same in experiment [7]. Briefly: Inhibition of TLR4-mediated NF-kappaB signaling pathway in BALB/c mouse RAW264.7 cells assessed as suppression of LPS-stimulated TNF-alpha production at 1 to 10 ug/ml preincubated for 1 hr followed by LPS challenge measured after 6 hrs by immunoblot analysis.
Experiment [8] shares this target. Briefly: Inhibition of TLR4-mediated NF-kappaB signaling pathway in BALB/c mouse RAW264.7 cells assessed as suppression of LPS-stimulated TNF-alpha production at 0.5 to 5 ug/ml preincubated for 1 hr followed by LPS challenge measured after 6 hrs by immunoblot analysis in presence of adenosine.
The target is the same in experiment [9]. Briefly: Inhibition of TLR4-mediated NF-kappaB signaling pathway in BALB/c mouse RAW264.7 cells assessed as suppression of LPS-stimulated PGE2 production at 1 to 10 ug/ml preincubated for 1 hr followed by LPS challenge measured after 6 hrs by immunoblot analysis.
Experiment [10] has the same target. Briefly: Inhibition of TLR4-mediated NF-kappaB signaling pathway in BALB/c mouse RAW264.7 cells assessed as suppression of LPS-stimulated PGE2 production at 0.5 to 5 ug/ml preincubated for 1 hr followed by LPS challenge measured after 6 hrs by immunoblot analysis in presence of adenosine.

Active and inactive are the calls of the source. The calls are words filed in the database; no cut-off is given here.

Take `Nc1ncnc2c1ncn2[C@@H]1O[C@H](CO)[C@@H](O)[C@H]1O`: the inhibition entry in [1] and in experiment [4] was “Active” throughout. The inhibition result in [2], in experiment [3], in experiment [5] and in experiment [6] was “inactive” throughout.

On to `Nc1ncnc2c1ncn2[C@@H]1O[C@H](CO)C[C@H]1O`, for which the inhibition entry in experiment [7] and in experiment [9] was “Active” throughout. In addition, the inhibition result in [8], in experiment [3], in experiment [10] and in experiment [6] was “inactive” in each case.
